According to patent US9629893B2, “Agent derived from tortoise spleen stimulating mammalian hemopoiesis” (BMR Solutions Ltd., priority 2003, dated 2017):

Columns and labels:
[1] = side effects in patients; cited from earlier work
[2] = cited from earlier work
[3] = system: Mice irradiated with a high lethal dose (10 Gy); test: Survival of lethally irradiated mice (10 Gy) transplanted with BM cells treated with FTGN; assay type: in vivo; settings: 6×10^4 cells incubated one hour with 10 μg/ml, 30 days post-transplant
Experimental: Lethally irradiated mice (10 Gy.) were transplanted with 60.000 donor BM cells previously incubated for 1 hour in the presence ([…]) or absence of FTGN tetrapeptide. Mice survival was pursue during 30 days and compared to control irradiated mice untreated or mice that were transplanted with untreated donor BMC.
Mice irradiated with a high lethal dose (10 Gy) were injected with 6×10^4 cells previously incubated for one hour with 10 μg/ml FTGN tetrapeptide. Mice survival was surveyed for a 30 days period post-transplant.

[4] = FTGN tetrapeptide stability (HPLC); assay type: physicochemical
Experimental: FIG. 6a: HPLC chromatogram of FTGN tetrapeptide reconstituted in water after storage at −10° C. for one year.
FIG. 6c: HPLC chromatogram of FTGN tetrapeptide reconstituted in serum and incubated at 37° C. during 4 hours.
Dry freeze long term storage of the FTGN oligopeptide preserved its structural (FIG. 6a) and biological activities. The dry frozen tetrapeptide conserved its physical characteristics after reconstitution in purified water or serum (FIG. 6c) and was stable after four hours of incubation at 37° C.

[5] = system: Whole body irradiated C57Bl/6J mice; test: Ex vivo BMC treatment with FTGN, transplantation into whole body irradiated mice; assay type: in vivo; settings: 7.5 Gy, treated vs untreated mice (summary)
Bone marrow cells = test: In vitro incubation of BM cells with FTGN, cloning in methylcellulose medium (myeloid colonies); assay type: cell-based, mice; settings: 10 μg/ml, 2 hours; for number of colonies: vs no tetrapeptide
Experimental: FIG. 7a-c: FTGN tetrapeptide biological activity tested in vitro. BM cells were incubated in vitro in RPMI medium in the presence (10 μg/ml) or absence of FTGN tetrapeptide for 2 hours. Cells were washed and cloned in methylcellulose-containing medium.
Bone marrow cells from normal (non irradiated) mice (4-6×10^6 cells/ml) were incubated for 2 hours with 10 μg/ml tetrapeptide; the cells were washed and cloned in cytokine-supplemented methylcellulose semi-solid medium.
Myeloid colonies formed after two weeks were counted.

[6] = system: Whole body irradiated C57Bl/6J mice; test: Ex vivo BMC treatment with FTGN, transplantation into whole body irradiated mice; assay type: in vivo
Experimental: Mice that were whole-body irradiated with a dose of 7.5 Gy (which is normally considered a lethal dose), were transplanted by intravenous injection with donor's bone marrow cells preincubated ex vivo with different concentrations of the synthetic tetrapeptide.
Bone marrow cells (BMC) were transplanted into mice by intravenous injection, usually 60,000 cells in 0.3 ml of PBS buffer after 2 hours incubation at 37° C. with the examined agent.
Mice spleen colonies (CFUs) were counted using the method of Till and McCulloch [Till J. E. and McCulloch E. A. Radiation Res. (1961) 14: 213] on 9th, 11th and 14th days after irradiation.
CFUc were assayed in semi-solid medium using 2×10^4 cells/plate.
Donor normal BMC (4-6×10^6 cells/nil) from C57 Bl/6J mice were incubated with different concentrations of FTGN tetrapeptide (0.05; 0.1; 0.5; 1.0; 10 and 50 μg/ml) for two hours. Whole body irradiated (7.0 Gy) C57Bl/6J mice were intravenously injected with 6×10^4 treated or control cells. The recovery of the hematopoietic system in the transplanted mice was evaluated from the 4th to the 30th day post-irradiation.

[7] = system: Whole body irradiated (7.0 Gy) C57Bl/6J mice; test: Optimal FTGN ex vivo treatment concentration, normal or irradiated donor BMC transplanted into irradiated mice; assay type: in vivo
Experimental: Total body irradiated mice (7.0 Gy) were injected with 6×10^4 BMC previously treated with FTGN tetrapeptide at different concentrations (0.1, 0.5, 1.0, 10.0 and 50.0 μg/ml). Spleen colonies were measured 9 days after irradiation and compared to mice transplanted with BMC incubated only with PBS.
Total body irradiated mice (7.0 Gy) were injected with 6×10^4 BMC previously treated with FTGN tetrapeptide at different concentrations (0.1, 0.5, 1.0, 10.0 and 50.0 μg/ml). Bone marrow cells from femur were counted 4, 9 and 16 days after irradiation and compared to mice transplanted with BMC incubated only with PBS.
Donor BM cells incubated ex vivo in RPMI medium in the presence (10 μg/ml) or absence of FTGN tetrapeptide for 2 hours were transplanted into irradiated recipient mice (7.0 Gy.). Twenty days after transplant BMC/bone were counted.
In order to elucidate the optimal FTGN tetrapeptide treatment concentration needed to achieve maximum recovery of radiation damaged BMC, two sets of donor cells were examined. Donor BMC (4-6×10^6 cells/ml) from normal untreated C57 Bl/6J mice and from in vivo irradiated mice (4.5 Gy) collected 24 hours post-irradiation, were incubated for two hours with different concentrations of FTGN tetrapeptide (0.05; 0.1; 0.5; 1.0; 10 and 50 μg/ml). Whole body irradiated (7.0 Gy) C57Bl/6J mice were intravenously injected with 6×10^4 of each different donor treated cells or with control cells. The recovery of the hematopoietic system in the transplanted mice was evaluated from the 4th to the 30th day post-irradiation.

Irradiated mice (6.5 Gy) = test: In vivo treatment of irradiated mice with FTGN; settings: one or two intravenous 50 μg injections (2 or 2 and 24 hours post-irradiation), one month later
Experimental: Irradiated mice (6.5 Gy) were treated in vivo with the FTGN tetrapeptide. Thirty days after treatment BMC were counted.
Irradiated mice (6.5 Gy) were treated in vivo with the FTGN tetrapeptide. Thirty days after treatment CFU from BM were counted.
Irradiated mice (6.5 Gy) were treated with one or two intravenous 50 μg FTGN tetrapeptide injections (2 or 2 and 24 hours post-irradiation). BM nucleated cells count (FIG. 17) and CFUc (FIG. 18) were examined one month later.

[8] = 7.5 Gy, treated vs untreated mice (summary)
[9] = 9th day, vs mice transplanted with non-treated cells

Molecule: NCCCNCCSP(=O)(O)O [amifostine]
- patients with nausea and vomiting [1]: approximately 53%
- stability at room temperature once reconstituted [2]: quite limited

Molecule: FTGN (listed as Testudo horsfieldi)
- survival [3]: 100%
- structural and biological activities after dry freeze long term storage ([4]; dry freeze storage, −10° C. for one year, reconstituted in water): preserved
- stability after reconstitution in purified water or serum ([4]; four hours of incubation at 37° C.): stable
- number of spleen colonies [5]: substantially enhanced
- myeloid colony number (Bone marrow cells; BM cells from normal (non irradiated) mice, colonies after two weeks): increased colony number
- number of colonies (Bone marrow cells; ex vivo irradiated cells (4.5 Gy)): larger number of colonies
- number of colonies (Bone marrow cells; in vivo irradiated cells (4.5 Gy)): larger number of colonies
- spleen weight ([6]; 4th day after transplantation, vs control): No difference
- number of bone marrow cells (BMC) [6, 8]: increased
- number of white blood cells (WBC) [6, 8]: increased
- spleen growth [6, 8]: enhanced spleen growth
- spleen colonies number [6, 9]: augmented
- spleen weight [6, 9]: augmented
- peripheral blood white cells counts (WBC) ([6]; 16th day): improved
- total number of nucleated bone marrow cells per femur ([6]; 16th day): doubled
- spleen weight ([6]; 16th day, relative to control group): lower
- colony-forming cells (CFUbm) in the bone marrow ([6]; semi-solid medium, 9th and 16th day): improvement when low concentrations of the oligopeptide were used
- ex vivo treatment dose giving the greatest number of nucleated cell in BM ([7]; 4, 9 and 16 days after irradiation, 0.05-50 μg/ml tested): 1 to 10 µg/mL
- ex vivo treatment dose giving the highest spleen colony forming units (CFUs) count ([7]; 9th day, 0.05-50 μg/ml tested): 1 to 10 µg/mL
- BM repopulation activity after transplant ([7]; donor cells normal or from irradiated (4.5 Gy) mouse, 10 μg/ml, 2 hours): accelerated
- BM repopulation (BM nucleated cells count and CFUc) (Irradiated mice (6.5 Gy)): increased the BM repopulation
